According to patent publication US20250109381A1, “COMPOSITION FOR CULTRING NK CELLS, COMPRISING ALLOFERON, AND METHOD FOR CULTURING NK CELLS USING SAME” (NK MEDICS INC., priority 2022, published 2025):

Assays:
NK cells [1] = assay: NK cell increase rate by flow cytometry (FACS, CD3-FITC/CD56-PE); type: cell-based, human; settings: for NK (share of cells by FACS), Table 3 / NKT (share of cells by FACS), Table 3: 10 mg/L in NK cell culture medium of Example 1, 21 days
Description: Flow Cytometry (FACS analysis) analysis was performed to confirm the NK cell increase rate. Specifically, NK cells were cultured for 21 days in a medium containing 10 mg/L each of Test Example 1, Example 1 (untreated), and Alloferon 1 to 4 in Example 1. Cells before and after culture were collected by centrifugation at 1,400 rpm for 5minutes, and the collected cells were washed twice using PBS. Then, the cells were suspended in 1 ml of PBS, and the number of living cells was measured through Trypan blue staining. The cells were dispensed into FACS tubes at 1×10^6 cells/tube, and 2 ml of PBS was added. Then, centrifugation was performed at 400 g and 4° C. for 5 minutes, and the supernatant excluding cells was removed. 100 μl of 1% albumin was added to the remaining cell pellet, and antibodies were added and mixed with PBS. NK cells were treated with antibodies (CD3-FITC, CD56-PE), reacted in a light shielding state for 30 minutes, and then the cells were washed twice with PBS. NK cells were suspended in an appropriate amount of PBS, and then the data were compared and analyzed using FACSVerse (BD Biosciences, San Diego, CA, USA).

NK cells [2] = assay: NK cell activation receptor (NKp30, NKp44, NKp46) and perforin expression by FACS; type: cell-based, human; settings: for NKp30 expression / NKp44 expression / NKp46 expression / Perforin expression: NK cells proliferated 21 days, 10 mg/L in NK medium
Description: Based on the results of Test Example 3, receptor expression was confirmed and compared to measure the activity of NK cells. Specifically, as in Test Example 3, NK cells were cultured in each medium, and in order to measure the activity of NK cells proliferated for 21 days, the proliferated NK cells were isolated by flow cytometry. The expression of activating markers for these cells was further confirmed. The cultured NK cells were washed twice using PBS, then dispensed into a FACS tube at 1×10^6 cells/tube, and 2 ml of PBS was added. Then, centrifugation was performed at 400 g and 4° C. for 5 minutes, and the supernatant excluding cells was removed. 100 μl of 1% albumin was added to the remaining cell pellet, sorted using antibodies (CD3-FITC, CD56-PE) together with PBS, and then isolated according to surface markers. In addition to the isolated cells, NK cells were treated with antibodies (Anti-NKp30, anti-NKp44, anti NKp46, and Perforin) to confirm the expression of activating receptors (NKp30, NKp44, NKp46) and Perforin on the surface of NK cells, and reacted in a light shielding state for 30 minutes, and the cells were washed twice again using PBS. NK cells were suspended in an appropriate amount of PBS, and the data were compared and analyzed using FACS AriaII (BD Biosciences, San Diego, CA, USA).

NK cells [3] = assay: IFN-gamma secretion of NK cells (Human IFN-y ELISA); type: cell-based; settings: with IL-2 10 mg/L in typical medium, 48 hours; for IFN-r, Table 6: alloferon 100 mg/L
Description: IFN-r is an indicator of the activity of NK cells, and it is considered as the secretion amount is higher, the cytotoxicity is higher and the differentiation ability increases.
IFN-y secreted from NK cells was measured in the culture medium in which the cells were cultured, using a Human IFN-y ELISA kit (BD Biosciences, San Diego, CA, USA). 100 μl of capture antibody diluted in coating buffer was added to each well of a 96-well plate for ELISA, then sealed and left overnight at 4° C. It was washed three times using wash buffer, and all remaining buffer was removed. 200 μl of assay diluent was added to each well and reacted at room temperature for 1 hour for blocking. It was washed again three times using wash buffer, and all remaining buffer was removed. 100 μl of each prepared IFN-y standard and culture supernatants were added, the plate was sealed, and the reaction was performed at room temperature for 2 hours. It was washed 5 times using wash buffer, and all remaining buffer was removed. 100 μl of Working detector (Detection Antibody+SAv-HRP reagent) was added to each well, the plate was sealed, and reaction was performed at room temperature for 1 hour. It was washed 7 times using wash buffer, and all remaining buffer was removed. 100 μl of Substrate solution was added to each well and the reaction was performed at room temperature while shielding light for 30 minutes. 50 μl of Stop solution was added to each well, and the absorbance was measured at 450 nm within 30 minutes.

NK cells [4] = assay: Cell proliferation assay (incorporation of [3H]-thymidine), NK cell culture with added alloferon; type: cell-based, human; settings: 0.1 to 100 mg/L tested, cultured 21 days, FIG. 3
Description: 30 ml of blood was collected from a human blood donor, RosetteSep NK enrichment antibody cocktail (50 ul/ml) was added thereto, and then diluted 1:1 v/v with phosphate buffer solution (PBS). The blood was centrifuged at 1600 rpm for 20 minutes using a density gradient centrifugation (Ficoll-Plaque) to separate the cell layer containing NK cells. The process of washing and centrifuging this with PBS was repeated twice. Then, the number of cells was counted by staining with trypan blue, and the average number of cells obtained was 1.6˜3.0×10^5 cell/ml, and the cells were cultured in NK cell culture medium.
The NK cell culture medium used was a combination of various substances that were conventionally known to be necessary for NK culture. […] This was used as the NK cell culture medium of Example 1, to which alloferon was further mixed and used at 0.1 to 100 mg/L as needed. […]
Specifically, NK cells (1×10^5 cells/ml) were placed in 96-well plates, and then treated with 10 mg/L each of alloferons 1 to 4 in the NK cell culture medium of Example 1, and then cultured in an environment at 5% CO2, 37° C. for 48 hours or 21 days. […] After that, the radioactivity was measured using 1450 MicroBeta TriLux (PerkinElmer Life and Analytical Sciences).

NK cells [5] = assay: Co-treatment of alloferon and other interleukins, NK cell proliferation; type: cell-based, human; settings: only alloferon 1 added at 10 mg/L, 21 days, FIG. 4
Description: Specifically, NK cells (1×10^5 cells/ml) were placed in 96-well plates, and then treated with 10 mg/L each of alloferons 1 to 4 in the NK cell culture medium of Example 1, and then cultured in an environment at 5% CO2, 37° C. for 48 hours or 21 days. After the culture, [^3H]-thymidine (37 mBq) was added at 0.2 μCi per well and cultured for 8 hours. Both cells and medium were transferred to a glass fiber filter (size 90.120 mm; Wallac, Turkr, Finland) using a 96-well harvester. After drying the filter, a scintillator sheet (Meltilex, Wallac) was melted to coat the filter. After that, the radioactivity was measured using 1450 MicroBeta TriLux (PerkinElmer Life and Analytical Sciences).
In order to identify factors that imparts the influence other than alloferon during NK cell culture, the NK cell proliferation effect was confirmed after co-treatment with various combinations of interleukins. Except for the medium composition, the NK cell culture method was the same as in Test Example 1, and the cells were cultured for 21 days (*** random period).

[6] = after culture (day 21), 10 mg/L in NK cell culture medium of Example 1

For “GVSGHGQHGVHG (engineered from known peptides) [Alloferon 2]”, the “NK (share of cells by FACS), Table 3” value (NK cells [1]) was 73.8%, the “NKT (share of cells by FACS), Table 3” value (NK cells [1]) was 12.4% and the NKp30 expression (NK cells [2]) was 53.2%. It also gave an NKp44 expression (NK cells [2]) of 50.9%, an NKp46 expression (NK cells [2]) of 78.6% and a Perforin expression (NK cells [2]) of 99.9%. For the same sequence, the “IFN-r, Table 6” value (NK cells [3]) was 4.87 µg/L.
“HGVSGHGQHGVHG (engineered from known peptides) [Alloferon 1]” was tested, and the “concentration at which the maximum amount of NK cells was reached” value (NK cells [4]) was 10 mg/L, the NK cell proliferation (NK cells [5]) was “NK cell proliferation was induced” and the “NK (share of cells by FACS), Table 3” value (NK cells [1]) was 74.7%. For the same sequence, the “NKT (share of cells by FACS), Table 3” value (NK cells [1]) was 6.5%, the “increase in number of NK cells compared to typical medium (RPMI)” value (NK cells [1]; 10 mg/L, day 0 to day 21) was 1,430 times and the “increase of NK cells” value (NK cells [1]; 10 mg/L, day 0 to day 21) was 8,790 fold. For the same sequence, the “increase of NKT cells” value (NK cells [1]; 10 mg/L, day 0 to day 21) was 560 fold, the “NK (share of cells by FACS)” value (NK cells [1]; [6]) was 74.7% and the “NKT (share of cells by FACS)” value (NK cells [1]; [6]) was 6.5%. For the same sequence, the “NK (share of cells by FACS)” value (NK cells [1]; before culture (day 0)) was 12.2%, the “NKT (share of cells by FACS)” value (NK cells [1]; before culture (day 0)) was 1.7% and the “NK activity versus typical medium or NK cell culture medium of Example 1” value (NK cells [2]; 21 days culture, FIG. 6 / Table 4) was “higher NK activity”. For the same sequence, the NKp30 expression (NK cells [2]) was 57.4%, the NKp44 expression (NK cells [2]) was 60.3% and the NKp46 expression (NK cells [2]) was 88.4%. The Perforin expression (NK cells [2]) was 99.8%, the “IFN-r, Table 6” value (NK cells [3]) was 6.32 µg/L and the IFN-r (NK cells [3]; alloferon 1 0.1 mg/L) was 0.13 µg/L. The IFN-r (NK cells [3]; alloferon 1 5 mg/L) was 1.82 µg/L, the IFN-r (NK cells [3]; alloferon 1 10 mg/L) was 2.33 µg/L and the IFN-r (NK cells [3]; alloferon 1 50 mg/L) was 4.86 µg/L. The IFN-r (NK cells [3]; alloferon 1 100 mg/L) was 6.32 µg/L.
“VSGHGQHGVH (engineered from known peptides) [Alloferon 4]” was tested, and the “NK (share of cells by FACS), Table 3” value (NK cells [1]) was 71.5%, the “NKT (share of cells by FACS), Table 3” value (NK cells [1]) was 8.4% and the NKp30 expression (NK cells [2]) was 61.1%. For the same sequence, the NKp44 expression (NK cells [2]) was 68.2%, the NKp46 expression (NK cells [2]) was 82.5% and the Perforin expression (NK cells [2]) was 99.8%. The “IFN-r, Table 6” value (NK cells [3]) was 5.84 µg/L.
With “SGHGQHGV (engineered from known peptides) [Alloferon 3]” the “NK (share of cells by FACS), Table 3” value (NK cells [1]) was 69.7%, the “NKT (share of cells by FACS), Table 3” value (NK cells [1]) was 13.2% and the NKp30 expression (NK cells [2]) was 47.8%. For the same sequence, the NKp44 expression (NK cells [2]) was 51.3%, the NKp46 expression (NK cells [2]) was 69.1% and the Perforin expression (NK cells [2]) was 90.4%. The “IFN-r, Table 6” value (NK cells [3]) was 3.31 µg/L.
